How the values were obtained:
α1-adrenergic receptor = test: α1-Adrenergic receptor binding test ([³H] prazosin displacement, rat brain membrane preparation); conditions: 0.6 nM [³H] prazosin, 25 °C for 30 minutes, read-out: IC₅₀
Description: The α1-adrenergic receptor binding reaction was performed in accordance with the method of Greengrass and Bremner [Eur. J. Pharmacol., 55, 323 (1979)].
A rat was decapitated, and the brain was taken out and homogenized with 30 volumes of 50 Mm Tris hydrochloride (Ph 7.4). The homogenate was centrifuged at 1,000 x g for 5 minutes and the supernatant was further centrifuged at 48,000 x g for 20 minutes. The precipitate thus obtained was suspended in 50 mM Tris hydrochloride (pH 7.4) and recentrifuged at 48,000 x g for 20 minutes. The obtained precipitate was suspended in 50 mM Tris hydrochloride (pH 7.4) in such a manner as to give a concentration of 1.0 mg/ml protein. Thus an α1-adrenergic receptor preparation was obtained.
To 1.0 ml portions of this receptor preparation were added 0.6 nM [³H] prazosin and specimens at various concentrations, and the mixture was allowed to react at 25 °C for 30 minutes.
After the completion of the reaction, each reaction mixture was subjected to a rapid filtration through a glass filter (Whatman GF/B) and the filter was washed with 3 ml portions of 50 mM tris hydrochloride (pH 7.4) thrice. The radioactivity on the filter was measured with a liquid scintillation counter.
The difference between the radioactivity in the absence of any specimen and the radioactivity obtained in the presence of 10 µM of prazosin was referred to as the specific binding of the control. The ratio of the radioactivity obtained at the time of adding each specimen to the control radioactivity was determined and plotted against the specimen concentration. Then the fifty percent inhibitory concentration (IC₅₀) of each specimen was calculated by the curve fitting method with the use of a computer.

dog (beagle) = test: Depressor activity test (telemetry of blood pressure and cardiac rate in conscious dogs after oral administration); format: in vivo
Description: The depressor activity test was performed in accordance with the method described in Journal of Physiology, 448, 307 - 320 (1992).
Under pentobarbital anesthesia, a catheter for detecting and transmitting the blood pressure was embedded in a branch of the femoral artery of a dog (weighing 10 kg, beagle, each group having 4 animals). When the animal restored from the postoperative aggression, a powder of the compound 1 encapsulated in a cellulose capsule (3 mg/kg) was orally administered to the animal, which had been fasted, without anesthesia or restriction.
Via the catheter embedded in the body of the beagle, the cardiac rate was measured from the blood pressure and the blood pressure pulse wave in accordance with the telemetry method. The blood pressure lowering effect attained the maximum level 30 minutes after the administration and the blood pressure was lowered by about 12 mmHg. This depressor activity persisted even 24 hours after the administration.

[1] = test system: smooth muscle of the beagle prostate gland; test: Urination disorder-relieving activity test (phenylephrine-induced contraction of isolated prostate smooth muscle, Magnus' method); format: cell-based, dog; conditions: specimen 10⁻⁸ to 10⁻⁶ M for 15 minutes, against cumulative phenylephrine, calculated from two dose/reaction curves, read-out: IC₅₀
Description: The urination disorder-relieving activity test was performed in accordance with the method described in FEDERATION PROCEEDINGS, 45 (11), (1986). Under pentobarbital anesthesia, the prostate gland of a male dog (weighing 7 to 10 kg, beagle, each group having 3 animals) was taken out. Then a preparation of the smooth muscle of the beagle prostate gland thus taken out was prepared in a conventional manner and the isometric tensile strength was measured by Magnus' method. After incubating for 60 to 90 minutes, phenylephrine (10⁻⁷ to 10⁻⁴ M) was accumulatively administered to give a control dose/reaction curve. After washing away the phenylephrine, the preparation was treated with a specimen (10⁻⁸ to 10⁻⁶ M) for 15 minutes. In the presence of the specimen, phenylephrine (10⁻⁷ to 10⁻³ M) was accumulatively administered again and a dose/reaction curve was obtained in the same manner. Based on these two dose/reaction curves, the IC₅₀ of each specimen was calculated.

[2] = 3 mg/kg orally, time after the administration

Row | SMILES | IC50 (α1-adrenergic receptor) [nM] | potency estimated from few doses [1] [nM] | other results
1 | CCC(=O)Cn1cc(CCN2CCN(c3ccc(F)cc3)CC2)c2ccccc21 [compound 8] | 5.13 | – | –
2 | COc1ccccc1N1CCN(CCc2cn(CC(=O)C(C)C)c3ccccc23)CC1 [compound 15] | 0.679 | – | –
3 | CCC(=O)Cn1cc(CCN2CCN(c3cccc(C)c3C)CC2)c2ccccc21 [compound 4] | 3.93 | – | –
4 | CCCC(=O)Cn1cc(CCN2CCN(c3ccccc3OC)CC2)c2ccccc21 [compound 14] | 0.801 | – | –
5 | CCC(=O)Cn1cc(CCN2CCN(c3ccccc3OC)CC2)c2ccccc21 [compound 1, 3-[2-(4-(2-methoxyphenyl)piperadinyl)ethyl]-1-(2-oxobutyl)indole] | 7.75 | 1.4 | cardiac rate (dog (beagle); 3 mg/kg orally): somewhat lowered; blood pressure was lowered (maximum level) (dog (beagle); 3 mg/kg orally (powder in cellulose capsule), fasted, without anesthesia, 30 minutes after the administration): about 12 mmHg; persistence of depressor activity (dog (beagle); [2]): ≥ 24 h; time at which the blood pressure lowering effect attained the maximum level (dog (beagle); [2]): 30 min
6 | COc1ccccc1N1CCN(CCCNc2cc(=O)n(C)c(=O)n2C)CC1 [urapidil, reference compound] | 741 | 53.7 | –
